Where “and” joins values, the source holds several entries; their conditions need not be identical. Equal values may be shown once.
Key:
Alternaria alternata = assay: In vitro-Test with Alternaria alternata; format: cell-based
Septoria tritici [1] = assay: In vitro-Test with Septoria tritici; format: cell-based; conditions: compound alone
Puccinia triticina = assay: In vivo preventive Puccinia triticina test (wheat); conditions: 8 days after inoculation
Procedure: After the spray coating has been dried, the plants are sprayed with a spore suspension of Puccinia triticina.
(§1) The test is evaluated 8 days after the inoculation.

Botrytis cinerea = assay: In vitro-Test with Botrytis cinerea; format: cell-based
Pyrenophora teres = assay: In vitro-Test with Pyrenophora teres; format: cell-based
[2] = tested on: fish (Danio rerio) embryos; assay: In vivo ecotoxicity screening test on fish (Danio rerio); conditions: active compound alone; fish embryos, 96 h, 28.5° C.
Procedure: with ECxi the Effect Concentration (EC) of each chemical i (in ppm) causing x % effect on the ecotoxicity test endpoint.
For each compound combination, the predicted ECx value is calculated. It is then compared to an experimentally measured value. The ratio of predicted versus measured effect for the combination (thereafter called the Model Deviation Ratio or MDR) is then calculated.
The environmental effect of the compound combinations was measured experimentally in laboratory ecotoxicity screening studies with fish (Danio rerio). […] Mortality was recorded after 96 h for each tested concentration and a reference control. […] Then, the MDR values were calculated.
• Solvent: 0.5% by weight dimethyl sulfoxide
This concentrate is then diluted with water to the desired a.i. concentration, leading to a maximal solvent concentration of 0.5% by weight. The compounds alone and the combinations were tested for five increasing concentrations between 0.01 and 1000 ppm a.i., (e.g. 0.1, 1.0, 10 and 100 ppm a.i). For the combinations, compounds A and B were mixed in a weight ratio of 5:1 to 1:5 and five increasing concentrations were tested for each ratio.

Septoria tritici [3] = assay: In vivo preventive Septoria tritici test (wheat); conditions: 21 days after inoculation
Procedure: After the spray coating has been dried, the plants are sprayed with a spore suspension of Septoria tritici.
The test is evaluated 21 days after the inoculation.

Pyricularia oryzae = format: cell-based; conditions: 5 ppm
Venturia inaequalis = assay: In vivo preventive test on Venturia (apples); conditions: 10 days after inoculation
Procedure: The test is evaluated 10 days after the inoculation.

Leptosphaeria nodorum = assay: In vivo preventive Leptosphaeria nodorum test (wheat); conditions: Table G1, 8 days after inoculation
Procedure: After the spray coating has been dried, the plants are sprayed with a spore suspension of Leptosphaeria nodorum.
as §1

Rhizoctonia solani = assay: In vitro-Test with Rhizoctonia solani; format: cell-based; conditions: compound alone
Phakopsora pachyrhizi = assay: In vivo preventive test on Phakopsora (soybeans); conditions: Table C3, 7 days after inoculation
Fusarium culmorum = assay: In vitro-Test with Fusarium culmorum; format: cell-based; conditions: 0.2 ppm
Ustilago avenae = assay: In vitro-Test with Ustilago avenae; format: cell-based; conditions: compound alone
Sphaerotheca fuliginea = assay: In vivo preventive test on Sphaerotheca (cucumbers); conditions: Table D1, 7 days after inoculation
[4] = tested on: Blumeria graminis f.sp. hordei; assay: In vivo preventive Blumeria test (barley); conditions: 7 days after inoculation

CC(C)(C)[C@@H](O)[C@@H](Cc1ccc(Cl)cc1)n1cncn1 (racemic) [Example 1.015, paclobutrazol]
Efficacy % (Alternaria alternata; 1 ppm): 0% | Efficacy % (Septoria tritici [1]; 1 ppm): 13%

Cn1cc(C(=O)Nc2ccc(F)cc2-c2ccc(Cl)c(Cl)c2)c(C(F)F)n1 [Example 2.002, bixafen]
Efficacy in % found (Puccinia triticina; Table H1, 25 ppm a.i.): 22% | Efficacy in % found (Puccinia triticina; Table H1, 50 ppm a.i.): 33% | Efficacy in % found (Puccinia triticina; Table H1, 100 ppm a.i.): 67% | Efficacy % (Alternaria alternata; 0.04 ppm): 55% | Efficacy % (Alternaria alternata; 0.2 ppm): 84% and 57% | Efficacy % (Alternaria alternata; 1 ppm): 88% | Efficacy % (Botrytis cinerea; 1 ppm): 63% | Efficacy % (Botrytis cinerea; 5 ppm): 91% | Efficacy % (Pyrenophora teres; 0.2 ppm): 46% | Efficacy % (Pyrenophora teres; 1 ppm): 60% | Efficacy % (Pyrenophora teres; 5 ppm): 72% | Ecotoxicity LC50-96 h found [2]: 0.154 ppm a.i.

CON=C(C(=O)OC)c1ccccc1CON=C(C)c1cccc(C(F)(F)F)c1 [Example 3.020, trifloxystrobin]
pest or weed control at 2.5 ppm (Puccinia triticina; Puccinia triticina, 192 h, Table H1, 2.5 ppm a.i., read-out: Efficacy in % found): 0% | pest or weed control at 5 ppm (Puccinia triticina; Puccinia triticina, 192 h, Table H1, 5 ppm a.i., read-out: Efficacy in % found): 0% | pest or weed control at 10 ppm (Puccinia triticina; Puccinia triticina, 192 h, Table H1, 10 ppm a.i., read-out: Efficacy in % found): 11% | pest or weed control at 2.5 ppm (Septoria tritici [3]; Zymoseptoria tritici, 504 h, 2.5 ppm a.i., read-out: Efficacy in % found): 29% | pest or weed control at 5 ppm (Septoria tritici [3]; Zymoseptoria tritici, 504 h, 5 ppm a.i., read-out: Efficacy in % found): 29% | pest or weed control at 10 ppm (Septoria tritici [3]; Zymoseptoria tritici, 504 h, 10 ppm a.i., read-out: Efficacy in % found): 29% | Efficacy % (Pyrenophora teres; 5 ppm): 6% | Efficacy % (Pyricularia oryzae): 98% | Efficacy % (Septoria tritici [1]; 5 ppm): 90% | Ecotoxicity LC50-96 h found [2]: 0.24 ppm a.i.

mancozeb [Example 5.013]
Efficacy in % found (Venturia inaequalis; Table E2, 12.5 ppm a.i.): 0% | Efficacy in % found (Venturia inaequalis; Table E2, 25 ppm a.i.): 18% | Efficacy in % found (Venturia inaequalis; Table E2, 50 ppm a.i.): 95% | Efficacy in % found (Leptosphaeria nodorum; 250 ppm a.i.): 14% | Efficacy in % found (Leptosphaeria nodorum; 500 ppm a.i.): 14% | Efficacy in % found (Leptosphaeria nodorum; 1000 ppm a.i.): 14% | Efficacy in % found (Septoria tritici [3]; 250 ppm a.i.): 29% | Efficacy in % found (Septoria tritici [3]; 500 ppm a.i.): 29% | Efficacy in % found (Septoria tritici [3]; 1000 ppm a.i.): 29% | Efficacy % (Pyrenophora teres; 20 ppm): 81% | Efficacy % (Pyrenophora teres; 100 ppm): 83% | Efficacy % (Rhizoctonia solani; 4 ppm): 57% | Efficacy % (Rhizoctonia solani; 20 ppm): 99% | Efficacy in % found (Phakopsora pachyrhizi; 12.5 ppm a.i.): 23% | Efficacy in % found (Phakopsora pachyrhizi; 25 ppm a.i.): 45% | Efficacy in % found (Phakopsora pachyrhizi; 50 ppm a.i.): 90%

OC(Cc1ccccc1Cl)(Cn1nc[nH]c1=S)C1(Cl)CC1 (centres unmarked) [Example 1.018, prothioconazole]
Efficacy in % found (Venturia inaequalis; Table E1, 2.5 ppm a.i.): 0% | Efficacy in % found (Venturia inaequalis; Table E1, 5 ppm a.i.): 30% | Efficacy in % found (Venturia inaequalis; Table E1, 10 ppm a.i.): 61% | Efficacy in % found (Puccinia triticina; 25 ppm a.i.): 0% | Efficacy in % found (Puccinia triticina; 50 ppm a.i.): 0% | Efficacy in % found (Puccinia triticina; 100 ppm a.i.): 0% | Efficacy in % found (Puccinia triticina; Table H1, 25 ppm a.i.): 0% | Efficacy in % found (Puccinia triticina; Table H1, 50 ppm a.i.): 0% | Efficacy in % found (Puccinia triticina; Table H1, 100 ppm a.i.): 0% | Efficacy in % found (Septoria tritici [3]; 25 ppm a.i.): 0% | Efficacy in % found (Septoria tritici [3]; 50 ppm a.i.): 14% | Efficacy in % found (Septoria tritici [3]; 100 ppm a.i.): 43% | Efficacy % (Alternaria alternata; 0.04 ppm): 0% | Efficacy % (Alternaria alternata; 0.2 ppm): 91% | Efficacy % (Fusarium culmorum): 99% | Efficacy % (Pyrenophora teres; 0.2 ppm): 22% | Efficacy % (Ustilago avenae; 1 ppm): 85% | Efficacy % (Ustilago avenae; 5 ppm): 100% | Ecotoxicity LC50-96 h found [2]: 3.16 ppm a.i. | Efficacy in % found (Sphaerotheca fuliginea; 2.5 ppm a.i.): 71% | Efficacy in % found (Sphaerotheca fuliginea; 5 ppm a.i.): 96% | Efficacy in % found (Sphaerotheca fuliginea; 10 ppm a.i.): 100%

O=C(NCCc1ncc(C(F)(F)F)cc1Cl)c1ccccc1C(F)(F)F [Example 2.005, fluopyram]
Efficacy in % found ([4]; Table F1, 15 ppm a.i.): 0% | Efficacy in % found ([4]; Table F1, 30 ppm a.i.): 0% | Efficacy in % found ([4]; Table F1, 60 ppm a.i.): 29% | Efficacy in % found (Puccinia triticina; 15 ppm a.i.): 0% | Efficacy in % found (Puccinia triticina; 30 ppm a.i.): 0% | Efficacy in % found (Puccinia triticina; 60 ppm a.i.): 0% | Efficacy in % found (Puccinia triticina; Table H1, 15 ppm a.i.): 0% | Efficacy in % found (Puccinia triticina; Table H1, 30 ppm a.i.): 0% | Efficacy in % found (Puccinia triticina; Table H1, 60 ppm a.i.): 33% | Efficacy in % found (Septoria tritici [3]; 30 ppm a.i.): 38% and 29% | Efficacy in % found (Septoria tritici [3]; 60 ppm a.i.): 88% and 71% | Efficacy % (Septoria tritici [1]; 0.04 ppm): 43% and 22% | Efficacy % (Septoria tritici [1]; 0.2 ppm): 93% and 67% | Efficacy % (Ustilago avenae; 5 ppm): 0% | Ecotoxicity LC50-96 h found [2]: >200 ppm a.i.

CCCN(CC)CC1COC2(CCC(C(C)(C)C)CC2)O1 (centres unmarked) [Example 1.020, spiroxamine]
Efficacy in % found (Venturia inaequalis; Table E1, 25 ppm a.i.): 0% | Efficacy in % found (Venturia inaequalis; Table E1, 50 ppm a.i.): 0% | Efficacy in % found (Venturia inaequalis; Table E1, 100 ppm a.i.): 14% | Efficacy in % found ([4]; Table F2, 62.5 ppm a.i.): 33% | Efficacy in % found ([4]; Table F2, 125 ppm a.i.): 89% | Efficacy in % found ([4]; Table F2, 250 ppm a.i.): 100% | pest or weed control at 62.5 ppm (Puccinia triticina; Puccinia triticina, 192 h, 62.5 ppm a.i., read-out: Efficacy in % found): 11% | pest or weed control at 125 ppm (Puccinia triticina; Puccinia triticina, 192 h, 125 ppm a.i., read-out: Efficacy in % found): 33% | pest or weed control at 250 ppm (Puccinia triticina; Puccinia triticina, 192 h, 250 ppm a.i., read-out: Efficacy in % found): 33% | pest or weed control at 62.5 ppm (Septoria tritici [3]; Zymoseptoria tritici, 504 h, 62.5 ppm a.i., read-out: Efficacy in % found): 0% | pest or weed control at 125 ppm (Septoria tritici [3]; Zymoseptoria tritici, 504 h, 125 ppm a.i., read-out: Efficacy in % found): 14% | pest or weed control at 250 ppm (Septoria tritici [3]; Zymoseptoria tritici, 504 h, 250 ppm a.i., read-out: Efficacy in % found): 57% | Efficacy % (Botrytis cinerea; 4 ppm): 7% | Efficacy % (Botrytis cinerea; 20 ppm): 9% | Efficacy % (Septoria tritici [1]; 0.8 ppm): 25% | Efficacy % (Septoria tritici [1]; 4 ppm): 34% | Efficacy % (Ustilago avenae; 20 ppm): 12% | Efficacy % (Ustilago avenae; 100 ppm): 100% | Ecotoxicity LC50-96 h found [2]: 14.81 ppm a.i. | Efficacy in % found (Sphaerotheca fuliginea; 25 ppm a.i.): 31% | Efficacy in % found (Sphaerotheca fuliginea; 50 ppm a.i.): 37% | Efficacy in % found (Sphaerotheca fuliginea; 100 ppm a.i.): 49%

O=C(Nc1ccccc1)N(Cc1ccc(Cl)cc1)C1CCCC1 [Example 4.005, pencycuron]
Efficacy in % found (Venturia inaequalis; Table E1, 25 ppm a.i.): 0% | Efficacy in % found (Venturia inaequalis; Table E1, 50 ppm a.i.): 0% | Efficacy in % found (Venturia inaequalis; Table E1, 100 ppm a.i.): 4% | Efficacy in % found (Leptosphaeria nodorum; 62.5 ppm a.i.): 14% | Efficacy in % found (Leptosphaeria nodorum; 125 ppm a.i.): 14% | Efficacy in % found (Leptosphaeria nodorum; 250 ppm a.i.): 29% | Efficacy in % found (Puccinia triticina; 62.5 ppm a.i.): 0% | Efficacy in % found (Septoria tritici [3]; 62.5 ppm a.i.): 0% | Efficacy in % found (Septoria tritici [3]; 125 ppm a.i.): 0% | Efficacy in % found (Septoria tritici [3]; 250 ppm a.i.): 0% | Efficacy % (Pyrenophora teres; 20 ppm): 17% | Efficacy % (Pyrenophora teres; 100 ppm): 5% | Efficacy % (Septoria tritici [1]; 20 ppm): 8% | Efficacy % (Septoria tritici [1]; 100 ppm): 0% | Ecotoxicity LC50-96 h found [2]: >200 ppm a.i.

CCCOc1nc2ccc(I)cc2c(=O)n1CCC [Example 13.004, proquinazid]
Efficacy in % found (Venturia inaequalis; Table E1, 12.5 ppm a.i.): 0% | Efficacy in % found (Venturia inaequalis; Table E1, 25 ppm a.i.): 0% | Efficacy in % found (Venturia inaequalis; Table E1, 50 ppm a.i.): 0% | Efficacy in % found (Leptosphaeria nodorum; 250 ppm a.i.): 0% | Efficacy in % found (Leptosphaeria nodorum; 500 ppm a.i.): 14% | Efficacy in % found (Leptosphaeria nodorum; 1000 ppm a.i.): 14% | Efficacy in % found (Septoria tritici [3]; 250 ppm a.i.): 0% | Efficacy in % found (Septoria tritici [3]; 500 ppm a.i.): 0% | Efficacy in % found (Septoria tritici [3]; 1000 ppm a.i.): 0% | Efficacy % (Alternaria alternata; 0.8 ppm): 0% | Efficacy % (Alternaria alternata; 4 ppm): 0% | Efficacy % (Septoria tritici [1]; 20 ppm): 55% | Efficacy % (Septoria tritici [1]; 100 ppm): 28% | Ecotoxicity LC50-96 h found [2]: 9.89 ppm a.i.

From patent US20200008426A1, “ACTIVE COMPOUND COMBINATIONS” (BAYER AKTIENGESELLSCHAFT, priority 2017, published 2020)
